Several values for one entry are separate records, joined by “and”; a condition that tells them apart may be missing. Equal values may be shown once.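 The compound was tested at five concentrations on cells cultured in 96-well plates, with a 48-hour exposure period. GI50: concentration for 50% inhibition of growth. TGI is the concentration that stops growth completely.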
Columns and labels:
Experiment in all cases: NCI-60 cell line screen, 48 h
COLO 205 colon = test system: COLO 205 colon
EKVX NSCLC = test system: EKVX NSCLC
HOP-92 NSCLC = test system: HOP-92 NSCLC
MCF7 breast = test system: MCF7 breast
SF-295 CNS = test system: SF-295 CNS
SF-539 CNS = test system: SF-539 CNS
SNB-19 CNS = test system: SNB-19 CNS
T-47D breast = test system: T-47D breast
KM20L2 colon = test system: KM20L2 colon
MDA-N = test system: MDA-N

Compound | GI50 (COLO 205 colon) | TGI (COLO 205 colon) | GI50 (EKVX NSCLC) | TGI (EKVX NSCLC) | GI50 (HOP-92 NSCLC) | TGI (HOP-92 NSCLC) | GI50 (MCF7 breast) | TGI (MCF7 breast) | GI50 (SF-295 CNS) | TGI (SF-295 CNS) | GI50 (SF-539 CNS) | TGI (SF-539 CNS) | GI50 (SNB-19 CNS) | TGI (SNB-19 CNS) | GI50 (T-47D breast) | TGI (T-47D breast) | TGI (KM20L2 colon) | TGI (MDA-N) | GI50 (MDA-N)
O=C(Nc1cccc(Cl)c1)c1cc2ccccc2cc1O | 19.1 µM and 13.6 µM | > 100 µM and 79 µM | 2.76 µM and 2.05 µM | > 100 µM | 0.41 µM and 0.306 µM | 3.66 µM and 0.973 µM | 2.66 µM and 2.12 µM | > 100 µM | 4.11 µM and 13.1 µM | > 100 µM | 3.17 µM and 0.577 µM | 28.8 µM and > 100 µM | 2.94 µM and 2.37 µM | > 100 µM | 1.88 µM and 1.73 µM | 8.92 µM and 6.82 µM |  |  | 
O=C(/C=C/c1ccccc1)/C=C/c1ccccc1 |  | > 100 µM |  |  |  | 88.6 µM |  |  |  | > 100 µM |  | 45 µM |  |  |  |  | 52.5 µM |  | 
COc1ccc(/C=c2/sc3n(c2=O)C(c2ccc(OC)c(OC)c2)C2=C(N=3)c3cc(F)ccc3OC2)cc1 (centres undefined) | 30.1 µM | > 57.1 µM | 39.7 µM | > 100 µM | 14.3 µM | > 65 µM | 23.6 µM | > 100 µM | 15.7 µM | 54.1 µM | 43 µM | > 100 µM | > 53.2 µM | > 100 µM | 4.42 µM | 39.6 µM |  |  | 
COc1ccccc1/C=C/c1cnccn1 |  | > 10 µM |  | > 10 µM |  | > 10 µM |  | > 10 µM |  | > 10 µM |  | > 10 µM |  | > 10 µM |  | > 10 µM |  | > 10 µM | 
Cc1sc2nc(NCCc3c[nH]c4ccc(Cl)cc34)[nH]c(=O)c2c1C | 1.74 µM | 3.77 µM | 2.76 µM |  | 2.06 µM | 5.64 µM | 2.47 µM | 7 µM | 3.53 µM | 13.4 µM | 3.37 µM | 13.4 µM | 3.54 µM | 13.2 µM | 2.98 µM | 12.7 µM |  |  | 
CCCS(=O)(=O)Nc1ccc(Nc2c3ccccc3nc3ccccc23)c(OC)c1 |  | 20.8 µM |  | 28.8 µM |  | 17.5 µM |  | 16.3 µM |  | 8.31 µM |  | 4.18 µM |  | 8.98 µM |  | 20.5 µM |  | 20.2 µM | 
O=C(O)c1ccccc1-c1ccccc1C(=O)Nc1ccc2c(c1)Cc1cc(F)ccc1-2 |  | 32.7 µM |  | 77.3 µM |  | > 100 µM |  | 85.5 µM |  | 94.2 µM |  | > 100 µM |  | > 100 µM |  | > 100 µM |  | 75.5 µM | 
COc1ccc(-n2cc(-c3ccc(Cl)c(Cl)c3)nc2SCc2cccc(C#N)c2)cc1 | 51.7 µM | > 100 µM | 41.9 µM | > 100 µM | 10.1 µM | 40.3 µM | 34.5 µM | > 100 µM | 22.2 µM | > 100 µM | 16.1 µM | 41.9 µM | 29.2 µM | > 100 µM | 5.33 µM | 74 µM |  |  | 
CC(C)c1ccccc1S(=O)c1ccccc1C(C)(C)O (centres undefined) |  | > 100 µM |  | > 100 µM |  | > 100 µM |  | > 100 µM |  | 48.1 µM |  | > 100 µM |  | > 100 µM |  | > 100 µM |  | > 100 µM | 
O/N=C\c1c(O)ccc2ccccc12 |  | > 100 µM |  | > 100 µM |  | > 100 µM |  | > 100 µM |  | > 100 µM |  | > 100 µM |  | > 100 µM |  | > 100 µM |  | > 100 µM | 
Nc1c(C(=O)N/N=C/c2ccc(-c3ccc(Cl)cc3)o2)cnn1-c1ccnc2c(C(F)(F)F)cccc12 | > 100 µM | > 100 µM | > 100 µM | > 100 µM | 50.7 µM | > 100 µM | > 100 µM | > 100 µM | > 100 µM | > 100 µM | > 100 µM | > 100 µM | > 100 µM | > 100 µM | 42.4 µM | > 100 µM |  |  | 
Nc1nc(Br)nc2c1ncn2C1CC(O)C(CO)O1 (centres undefined) | 13.7 µM | > 100 µM | > 100 µM | > 100 µM | 2.79 µM | > 100 µM | 1.26 µM | > 100 µM | 18.4 µM | > 76.4 µM | 27.4 µM | > 100 µM |  | > 56.9 µM | > 60.7 µM | > 100 µM |  |  | 
Cc1ccc(N(CSc2ccc(Cl)cc2)CSc2ccc(Cl)cc2)cc1 | 1.84 µM | 3.38 µM | 0.542 µM | 26 µM | 1.3 µM | 6.73 µM | 2.25 µM | 12.1 µM | 0.375 µM | 2.6 µM | 1.02 µM | 2.59 µM | 1.48 µM | 19.8 µM | 2.92 µM | 18.3 µM |  |  | 
NC(N)=N/N=C/c1cc(Cl)cc(Cl)c1O |  | > 100 µM |  | > 100 µM |  | > 100 µM |  | > 100 µM |  | > 100 µM |  | > 100 µM |  | > 100 µM |  | > 100 µM |  | > 100 µM | 
O=C(O)c1cc(O)c2c(c1)C(C1c3cc(C(=O)O)cc(O)c3C(=O)c3c(OC4OC(CO)C(O)C(O)C4O)cccc31)c1cccc(OC3OC(CO)C(O)C(O)C3O)c1C2=O (centres undefined) | > 100 µM | > 100 µM | > 100 µM | > 100 µM | > 100 µM | > 100 µM | > 100 µM | > 100 µM | > 100 µM | > 100 µM | > 100 µM | > 100 µM | > 100 µM | > 100 µM | > 100 µM | > 100 µM |  | > 100 µM | > 100 µM
CCCCCc1c(C)[nH]c(/C=C2\N=C(c3ccc[nH]3)C=C2CC)c1C | 0.0188 µM | 0.134 µM | 0.0216 µM | 0.364 µM | < 0.013 µM | 0.0426 µM | 0.0208 µM | 0.106 µM | < 0.01 µM | 0.0363 µM | 0.0153 µM | 0.172 µM | 0.0433 µM | 1.46 µM | 0.0187 µM | 0.149 µM |  |  | 
Cc1c[n+](Cc2ccc3ccccc3c2)cn1Cc1ccc2ccccc2c1 | 1.12 µM | 2.62 µM | 2.15 µM | 9.71 µM | 0.448 µM | 2.02 µM | 1.67 µM | 3.5 µM | 1.95 µM | 5.56 µM | 1.57 µM | 3.05 µM | 1.54 µM | 3.14 µM | 0.371 µM | 2.75 µM |  |  | 
